Here are results for 17 compounds from patent US8003660B2, “Modulators of muscarinic receptors” (Vertex Pharmaceuticals Incorporated, priority 2006, dated 2011).

Structures are written as SMILES.

Common to all, as to type: cell-based
Assay [1] deals with T1, M1 muscarinic receptor (Homo sapiens, UniProt P11229).
T1 construct: expressed in transfected cells; host or cells: CHO (M1-CHO)
T1 sequence (P11229 1-460): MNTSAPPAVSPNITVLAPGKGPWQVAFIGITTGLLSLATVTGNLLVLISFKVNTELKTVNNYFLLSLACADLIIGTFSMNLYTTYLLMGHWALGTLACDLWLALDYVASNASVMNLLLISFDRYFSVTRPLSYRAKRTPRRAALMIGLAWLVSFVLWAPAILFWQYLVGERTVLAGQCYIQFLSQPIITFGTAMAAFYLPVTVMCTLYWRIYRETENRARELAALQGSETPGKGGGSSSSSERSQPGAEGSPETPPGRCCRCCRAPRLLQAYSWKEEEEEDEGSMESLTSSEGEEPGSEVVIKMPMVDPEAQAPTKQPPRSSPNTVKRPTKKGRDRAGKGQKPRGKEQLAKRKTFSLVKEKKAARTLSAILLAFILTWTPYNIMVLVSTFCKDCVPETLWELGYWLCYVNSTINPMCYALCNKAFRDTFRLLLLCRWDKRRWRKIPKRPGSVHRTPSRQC
Nature of the assay: Functional mobilization of intracellular calcium (FLIPR) in CHO cells expressing M1. The settings on record: for EC50: CHO cells expressing M1, FLIPR calcium; for Emax: CHO, 100% = maximum response obtained with the Carbachol control, read-out: M1 Efficacy. The essentials: (§1)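 Calcium flux is read on FLIPR over 60 sec at 488/540 nm in muscarinic-receptor CHO lines. Antagonist mode adds carbachol at EC80 after 15 min compound preincubation or with simultaneous co-application. Agonist mode adds compound alone. Cells carry Fluo-3 or Calcium 3 dye in probenecid-containing pH 7.4 buffer, 0.5% DMSO final.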
(Calcium flux is commonly read through the fluorescence of an indicator in the cells.)

Assay [2] has as its target T2, M2 muscarinic receptor (Homo sapiens, UniProt P08172).
T2 construct: expressed in transfected cells; host or cells: CHO (M2-CHO)
T2 sequence (P08172 1-466): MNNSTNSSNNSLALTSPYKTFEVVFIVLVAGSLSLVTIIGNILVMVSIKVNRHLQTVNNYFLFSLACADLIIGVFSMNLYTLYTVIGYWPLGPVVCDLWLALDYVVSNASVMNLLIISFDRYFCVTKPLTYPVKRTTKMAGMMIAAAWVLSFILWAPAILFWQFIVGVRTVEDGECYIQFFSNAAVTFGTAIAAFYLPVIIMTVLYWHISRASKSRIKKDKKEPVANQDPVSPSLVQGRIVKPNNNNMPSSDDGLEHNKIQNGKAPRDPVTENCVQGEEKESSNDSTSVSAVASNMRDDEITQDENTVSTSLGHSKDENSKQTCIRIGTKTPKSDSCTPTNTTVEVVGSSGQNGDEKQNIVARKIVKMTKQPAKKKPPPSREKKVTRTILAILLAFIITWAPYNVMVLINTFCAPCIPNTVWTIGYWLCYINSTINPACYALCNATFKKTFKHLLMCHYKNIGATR
Nature of the assay: Functional mobilization of intracellular calcium (FLIPR) in CHO cells expressing M2. The settings on record: for EC50: CHO cells expressing M2, FLIPR calcium; for Emax: CHO, 100% = maximum response obtained with the Carbachol control, read-out: M2 Efficacy. The essentials:
as §1

Assay [3] addresses T3, M3 muscarinic receptor (Homo sapiens, UniProt P20309).
T3 construct: expressed in transfected cells; host or cells: CHO (M3-CHO)
As to the kind of experiment: Functional mobilization of intracellular calcium (FLIPR) in CHO cells expressing M3. The settings on record: for EC50: CHO cells expressing M3, FLIPR calcium; for Emax: CHO, 100% = maximum response obtained with the Carbachol control, read-out: M3 Efficacy. The essentials: as §1

Assay [4] addresses T4, M4 muscarinic receptor (Homo sapiens, UniProt P08173).
T4 construct: expressed in transfected cells; host or cells: CHO (M4-CHO)
T4 sequence (P08173 1-479): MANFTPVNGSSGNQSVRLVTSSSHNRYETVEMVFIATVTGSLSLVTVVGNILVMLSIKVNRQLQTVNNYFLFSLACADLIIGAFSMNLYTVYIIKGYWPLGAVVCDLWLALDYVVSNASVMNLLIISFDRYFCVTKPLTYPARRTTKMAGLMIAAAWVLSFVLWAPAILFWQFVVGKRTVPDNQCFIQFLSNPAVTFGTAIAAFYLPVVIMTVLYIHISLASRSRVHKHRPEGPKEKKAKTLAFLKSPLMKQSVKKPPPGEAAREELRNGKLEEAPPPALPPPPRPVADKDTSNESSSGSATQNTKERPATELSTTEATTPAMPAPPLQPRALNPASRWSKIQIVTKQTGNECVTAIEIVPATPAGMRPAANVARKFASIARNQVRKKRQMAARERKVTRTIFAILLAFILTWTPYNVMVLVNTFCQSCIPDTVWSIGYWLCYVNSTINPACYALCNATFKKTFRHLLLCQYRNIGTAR
Nature of the assay: Functional mobilization of intracellular calcium (FLIPR) in CHO cells expressing M4. The following applies: for EC50: CHO cells expressing M4, FLIPR calcium; for Emax: CHO, 100% = maximum response obtained with the Carbachol control, read-out: M4 Efficacy. The method in brief: as §1

T3 sequence (P20309 whole entry): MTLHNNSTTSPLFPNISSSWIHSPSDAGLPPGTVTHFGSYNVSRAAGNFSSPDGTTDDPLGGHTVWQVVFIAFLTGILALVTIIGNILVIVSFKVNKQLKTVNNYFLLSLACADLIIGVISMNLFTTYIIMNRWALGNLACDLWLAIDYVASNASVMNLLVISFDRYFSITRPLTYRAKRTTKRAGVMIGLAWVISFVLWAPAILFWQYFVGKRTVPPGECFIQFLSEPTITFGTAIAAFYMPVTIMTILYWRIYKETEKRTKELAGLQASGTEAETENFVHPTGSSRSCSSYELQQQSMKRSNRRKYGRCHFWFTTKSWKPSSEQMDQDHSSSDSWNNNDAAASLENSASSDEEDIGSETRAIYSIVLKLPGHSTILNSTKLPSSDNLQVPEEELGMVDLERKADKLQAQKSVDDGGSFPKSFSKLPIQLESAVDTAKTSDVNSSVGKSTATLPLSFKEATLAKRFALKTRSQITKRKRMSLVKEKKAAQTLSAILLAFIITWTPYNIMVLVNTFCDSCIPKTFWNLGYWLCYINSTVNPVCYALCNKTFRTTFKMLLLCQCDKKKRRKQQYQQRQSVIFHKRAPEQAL

Broadly, the EC50 is the midpoint of the concentration-response curve. As to `CCN(C(=O)[C@@H](C)OC)[C@H]1CCC2(CCN(CCC(C)(C)C)CC2)c2ccccc21` [compound 116], the EC50 is greater than 5 µM in assay [1], greater than 5 µM in assay [2], greater than 5 µM in assay [3] and less than 2 µM in assay [4]. Moreover, the Emax in assay [1] was 25 to 100%; in assay [2], less than 25%; in assay [3] it was less than 25%; in assay [4], 25 to 100%.
`CC(C)(C)CCN1CCC2(CC1)CC(F)(F)C(=O)c1ccccc12` [compound 117]: the EC50 was less than 2 µM in assay [1], less than 2 µM in assay [2], greater than 5 µM in assay [3] and less than 2 µM in assay [4]. Also, the Emax is 25 to 100% in assay [1], 25 to 100% in assay [2], less than 25% in assay [3] and 25 to 100% in assay [4].
As to `Cn1cncc1C(=O)N[C@@H]1CCC2(CCN(CCC(C)(C)C)CC2)c2ccccc21` [compound 118], the EC50 in assay [1] is 2 to 5 µM; in assay [2] it was greater than 5 µM; in assay [3], greater than 5 µM; in assay [4], less than 2 µM. Moreover, the Emax in assay [1] was 25 to 100%; in assay [2], less than 25%; in assay [3], less than 25%; in assay [4], 25 to 100%.
With `CC(C)(C)CCN1CCC2(CC[C@H](NC(=O)C3CC3)c3ccc(F)cc32)CC1` [compound 119], the EC50 was less than 2 µM in assay [1], less than 2 µM in assay [2], greater than 5 µM in assay [3] and less than 2 µM in assay [4]. The Emax in assay [1] was 25 to 100%; in assay [2], 25 to 100%; in assay [3], less than 25%; in assay [4], 25 to 100%.
Regarding `CC(C)(C)CCN1CCC2(CC1)CC(F)(F)C(O)c1ccccc12` (stereo not shown) [compound 120], the EC50 is less than 2 µM in assay [1], less than 2 µM in assay [2], greater than 5 µM in assay [3] and less than 2 µM in assay [4]. Moreover, the Emax is 25 to 100% in assay [1], 25 to 100% in assay [2], less than 25% in assay [3] and 25 to 100% in assay [4].
In the case of `CC(=O)N1CCCC(C(=O)N[C@H]2CCC3(CCN(CCC(C)(C)C)CC3)c3ccccc32)C1` (stereo partly shown) [compound 121], the EC50 in assay [1] was less than 2 µM; in assay [2] it was greater than 5 µM; in assay [3], greater than 5 µM; in assay [4] it was less than 2 µM. The Emax was 25 to 100% in assay [1], less than 25% in assay [2], less than 25% in assay [3] and 25 to 100% in assay [4].
As for `CC(=O)N(C1CC1)C1CCC2(CCN(CCC(C)(C)C)CC2)c2ccccc21` (stereo not shown) [compound 122], the EC50 in assay [1] is less than 2 µM; in assay [2] it was greater than 5 µM; in assay [3], greater than 5 µM; in assay [4], less than 2 µM. Also, the Emax in assay [1] is 25 to 100%; in assay [2], less than 25%; in assay [3], less than 25%; in assay [4], 25 to 100%.
For `CC(=O)N(C)[C@H]1CCC2(CCN(CCC(C)(C)C)CC2)c2ccccc21` [compound 123], the EC50 was less than 2 µM in assay [1], greater than 5 µM in assay [2], greater than 5 µM in assay [3] and less than 2 µM in assay [4]. For the same compound, the Emax in assay [1] was 25 to 100%; in assay [2], less than 25%; in assay [3], less than 25%; in assay [4], 25 to 100%.
With `CC(C)(C)CCN1CCC2(CC[C@H](NC(=O)CCN3CCCC3=O)c3ccccc32)CC1` [compound 124], the EC50 in assay [1] was less than 2 µM; in assay [2] it was less than 2 µM; in assay [3], greater than 5 µM; in assay [4] it was less than 2 µM. Besides, the Emax was 25 to 100% in assay [1], 25 to 100% in assay [2], less than 25% in assay [3] and 25 to 100% in assay [4].
For `CC(C)CCN1CCC2(CC[C@H](NC(=O)C3CC3)c3ccccc32)CC1` [compound 125], the EC50 was less than 2 µM in assay [1], 2 to 5 µM in assay [2], greater than 5 µM in assay [3] and less than 2 µM in assay [4]. Moreover, the Emax was 25 to 100% in assay [1], less than 25% in assay [2], less than 25% in assay [3] and 25 to 100% in assay [4].
For the compound `CC(C)[C@@H](C(=O)N[C@@H]1CCC2(CCN(CCC(C)(C)C)CC2)c2ccccc21)N1CCCC1=O` [compound 126], the EC50 in assay [1] is greater than 5 µM; in assay [2] it was greater than 5 µM; in assay [3] it was greater than 5 µM; in assay [4], less than 2 µM. In addition, the Emax is less than 25% in assay [1], less than 25% in assay [2], less than 25% in assay [3] and 25 to 100% in assay [4].
For the compound `CCN(C(=O)CCC(=O)NC)[C@H]1CCC2(CCN(CCC(C)(C)C)CC2)c2ccccc21` [compound 127], the EC50 in assay [1] is less than 2 µM; in assay [2], 2 to 5 µM; in assay [3], greater than 5 µM; in assay [4] it was less than 2 µM. The Emax was 25 to 100% in assay [1], less than 25% in assay [2], less than 25% in assay [3] and 25 to 100% in assay [4].
For `CCN(C(=O)c1cncn1C)[C@H]1CCC2(CCN(CCC(C)(C)C)CC2)c2ccccc21` [compound 128], the EC50 in assay [1] is 2 to 5 µM; in assay [2] it was greater than 5 µM; in assay [3], greater than 5 µM; in assay [4] it was less than 2 µM. Besides, the Emax in assay [1] was 25 to 100%; in assay [2], less than 25%; in assay [3], less than 25%; in assay [4] it was 25 to 100%.
Consider `Cn1cc(C(=O)N[C@@H]2CCC3(CCN(CCC(C)(C)C)CC3)c3ccccc32)cn1` [compound 129], for which the EC50 in assay [1] is greater than 5 µM; in assay [2], greater than 5 µM; in assay [3], greater than 5 µM; in assay [4], less than 2 µM. Moreover, the Emax is less than 25% in assay [1], less than 25% in assay [2], less than 25% in assay [3] and 25 to 100% in assay [4].
As for `CC(=O)N1CCC(C(=O)N(C)[C@H]2CCC3(CCN(CCC(C)(C)C)CC3)c3ccccc32)CC1` [compound 132], the EC50 was 2 to 5 µM in assay [1], greater than 5 µM in assay [2], greater than 5 µM in assay [3] and less than 2 µM in assay [4]. In addition, the Emax in assay [1] was 25 to 100%; in assay [2], less than 25%; in assay [3], less than 25%; in assay [4] it was 25 to 100%.
As to `CC(C)(C)CCN1CCC2(CC[C@@H](NC(=O)C3CCCO3)c3ccc(F)cc32)CC1` (stereo partly shown) [compound 133], the EC50 in assay [1] was less than 2 µM; in assay [2] it was less than 2 µM; in assay [3], greater than 5 µM; in assay [4] it was less than 2 µM. Besides, the Emax was 25 to 100% in assay [1], 25 to 100% in assay [2], less than 25% in assay [3] and 25 to 100% in assay [4].
Turning to `CC(C)(C)CCN1CCC2(CC[C@@H](NC(=O)Cc3cccnc3)c3ccccc32)CC1` [compound 134], the EC50 in assay [1] is greater than 5 µM; in assay [2] it was greater than 5 µM; in assay [3] it was greater than 5 µM; in assay [4], less than 2 µM. Also, the Emax is less than 25% in assay [1], less than 25% in assay [2], less than 25% in assay [3] and 25 to 100% in assay [4].
